Reference: patent publication US5045566A, “Novel imidate insecticides” (ICI Americas Inc., priority 1989, dated 1991)

What was measured:
Assay type in all cases: in vivo
[1] = system: Housefly [Musca domestica]; experiment: Housefly contact mortality in dishes (HF), 48 hours; details: μg of test compound per 25 female flies
In short: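 Dry-film exposure of 25 female houseflies per cage, 48 h; LC50 as μg per 25 flies.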

[2] = system: Black Bean Aphid [Aphis fabae (Scop.)]; experiment: Black bean aphid spray test on nasturtium (BBA), 48 hours; details: percent of test compound in sprayed solution
In short: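 LC50, given as percent test compound in the sprayed liquid, was calculated from dosage-mortality curves using concentrations from 0.05% downward. Sprays in 50:50 acetone-water went to runoff on ~5 cm nasturtiums carrying 25-50 aphids of mixed ages, one day after infestation. Deaths were counted 48 h later under greenhouse conditions.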

[3] = system: Tobacco Budworm [Heliothis virescens (Fabricius)] larvae; experiment: Tobacco budworm larvae, contact (TBW-C), 5 days; details: percent in solution, second-instar larvae
In short: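 Cotton cotyledons dipped 2–3 s in compound in 50-50 acetone-water, dried, then infested with 5 second-instar larvae and held 5 days at high humidity. Mortality scored; LC50 from dosage-mortality curves, expressed as percent compound in solution, concentrations from 0.1% downward.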

[4] = system: Tobacco Budworm [Heliothis virescens (Fabricius)] eggs; experiment: Tobacco budworm eggs (TBW-E); details: percent in solution; 2-day old eggs
In short: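 Step 1: dip 2-day old egg patches in acetone test solutions (top concentration 0.1%). Step 2: hold in dishes with rearing medium at 78° F. Step 3: record mortality after control hatch and feeding.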

[5] = system: Beet Armyworm (Spodoptera exigua); experiment: Beet armyworm leaf dip (BAW), 5 days; details: percent in solution; second-instar larvae; five days
Experimental: (§1) The compounds in Tables 1 and 2 above were tested for insecticidal activity using the following testing procedures. LC50 values, based on the results of these tests and calculated according to dosage-mortality curves, are expressed in Table 3.
Beet Armyworm (Spodoptera exigua):
Test compounds were diluted in a 50-50 acetone-water solution. Young leaves of sugar beets (Beta vulgaris) were immersed in the test solutions for 2-3 seconds and placed on a wire screen to dry. The dried leaves were placed in petri dishes containing a moistened filter paper and infested with five second-instar beet armyworm larvae. The dishes were placed in a high humidity chamber. Mortality of the larvae was recorded five days later. Test concentrations ranged from 0.1% downward. The LC-50 values are expressed below in Table 3 under the heading "BAW" in terms of percent of the test compound in solution.

[6] = system: Cabbage Looper [Trichoplusia ni (Hubner)]; experiment: Cabbage looper leaf dip (CL), 3-5 days; details: percent in solution, second-instar larvae
In short: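 Squash cotyledons dipped in test solution (acetone-water 50-50, ≤0.1%), dried, offered to 5 second-instar larvae; mortality after 3-5 days gives LC50.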

[7] = system: Aster Leafhopper [Macrosteles fascifrens (Stal)]; experiment: Aster leafhopper on dipped oat seedlings (LH), 48 hours; details: percent in solution, adults/nymphs
In short: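 LC50 values, given as percent of test compound in the dip solution, were derived from dosage-mortality curves over concentrations from 0.05% downward. Mortality was counted 48 hours after ten leafhopper adults/nymphs were enclosed on treated seedlings. The seedlings were oats, about 10 cm tall, briefly dipped in 50-50 acetone-water.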

[8] = system: Maize weevil [Sitophilus zeamais (Motschulsky)]; experiment: Maize weevil on dipped corn seeds (MW), 48 hours; details: percent in solution, adult weevils
In short: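 LC50, given as percent of compound in dipping solution, comes from dosage-mortality curves over concentrations descending from 0.01%. Four corn seeds soaked 2-3 s in 50:50 acetone:water solution were dried and held with 10 adult weevils, about 25° C, mortality read after 48 h.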

[9] = system: Rice water weevil [Lissorhoptrus oryzophilus (Kuschel)]; experiment: Rice water weevil topical (RWW), 48 hours; details: μg of test compound per weevil, female adults
Experimental: as §1
Rice water weevil [Lissorhoptrus oryzophilus (Kuschel)]:
Test compounds were diluted in acetone. Droplets (1 ul) of test solutions were applied to the ventral abdomens of ten female adult weevils. The treated weevils were placed in containers with wet cotton balls and rice foliage. The containers were covered and kept at a temperature of about 25° C. Mortality was recorded after 48 hours. Test concentrations ranged from […] down to that at which 50% mortality occurred. The LC50 values are expressed below in Table 3 under the heading "RWW" in terms of μg of test compound per weevil.

Structure (SMILES) | LC50 HF [1] [µg] | LC50 BBA [2] [%] | LC50 TBW C (contact) [3] [%] | LC50 TBW E (eggs) [4] [%] | LC50 BAW [5] [%] | LC50 CL [6] [%] | LC50 LH [7] [%] | LC50 MW [8] [%] | LC50 RWW [9] [µg]
CC(C)C(=Nc1cc(F)cc(C(F)(F)F)c1)OCc1cccc(Oc2ccccc2)c1 [Compound 77] | 10 | 0.001 | 0.0004 | 0.03 | 0.004 | 0.0005 | 0.0002 | > 0.01 | 
Fc1ccc(N=C(OCc2cccc(Oc3ccccc3)c2)C2CC2)cc1Cl [Compound 113] | 15 |  |  |  |  | 0.005 |  |  | > 2.5
CC(C)C(=Nc1ccc(C(C)C)cc1)OCc1cccc(Oc2ccccc2)c1 [Compound 144] | 100 | 0.003 | 0.006 | 0.05 | > 0.01 | 0.002 | 0.0006 | > 0.01 | 
CC(C)C(=Nc1ccc2c(c1)OCO2)OCc1cccc(Oc2ccc(F)cc2)c1 [Compound 176] | 1.8 | 0.0006 | 0.002 | 0.05 | 0.0035 | 0.0005 | > 0.05 | 0.009 | 
CC(C)C(=Nc1ccc(F)c(Br)c1)OCc1cccc(Oc2ccccc2)c1 [Compound 254] | 6 | 0.001 |  | 0.026 |  | 0.001 |  |  | > 2.5
CC(C)C(=Nc1cccc(C(F)(F)F)c1)OCc1ccc(F)c(Oc2ccc(F)cc2)c1 [Compound 268] | 4 | > 0.05 | 0.0005 | 0.023 | 0.001 | 0.000025 | 0.0005 | > 0.01 | 
CC(C)C(=Nc1cccc(Cl)c1)OCc1cccc(Oc2ccc(Cl)cc2)c1 [Compound 270] | 12 | > 0.05 | > 0.0015 | > 0.01 | 0.005 | 0.00025 | 0.003 | > 0.01 | 
CC(C)C(=Nc1cccc(I)c1)OCc1ccc(F)c(Oc2ccc(F)cc2)c1 [Compound 279] | 4 | 0.0005 | 0.007 | 0.016 | 0.0025 | 0.00008 | 0.0003 | > 0.01 | 
CC(C)C(=Nc1ccc(C(F)(F)F)cc1)OCc1ccc(F)c(Oc2ccc(F)cc2)c1 [Compound 314] | 21 |  |  | 0.012 |  | 0.00005 |  |  | 0.11
CC(C)C(=Nc1ccc(F)c(Cl)c1)OCc1ccc(F)c(Oc2ccc(F)c(F)c2)c1 [Compound 346] | 7.2 | 0.0008 | 0.0002 | > 0.1 | > 0.1 | > 0.1 | 0.05 | > 0.01 | 
CC(C)C(=Nc1ccc(OC(F)(F)F)cc1)OCc1ccc(F)c(Oc2ccc(F)c(F)c2)c1 [Compound 347] | 30 | 0.0002 | 0.0001 | > 0.1 | 0.00075 | 0.000075 | 0.0002 | > 0.01 | 
CC(C)C(=Nc1ccc(F)c(F)c1F)OCc1cccc(Oc2ccc(F)cc2)c1 [Compound 348] | 8 | 0.001 | 0.00075 | > 0.1 | > 0.1 | 0.0002 | 0.05 | > 0.01 | 
